Assays:
SHP2 = biological target: T1, SHP2 (Homo sapiens, UniProt Q06124); experiment: Inhibition of human recombinant tyrosine phosphatase SHP2 (DiFMUP fluorescence); type: biochemical; details: 1 µM; control solvent only; SD did not exceed 6%
T1 construct: purchased Sigma-Aldrich
T1 sequence (Q06124 1-593): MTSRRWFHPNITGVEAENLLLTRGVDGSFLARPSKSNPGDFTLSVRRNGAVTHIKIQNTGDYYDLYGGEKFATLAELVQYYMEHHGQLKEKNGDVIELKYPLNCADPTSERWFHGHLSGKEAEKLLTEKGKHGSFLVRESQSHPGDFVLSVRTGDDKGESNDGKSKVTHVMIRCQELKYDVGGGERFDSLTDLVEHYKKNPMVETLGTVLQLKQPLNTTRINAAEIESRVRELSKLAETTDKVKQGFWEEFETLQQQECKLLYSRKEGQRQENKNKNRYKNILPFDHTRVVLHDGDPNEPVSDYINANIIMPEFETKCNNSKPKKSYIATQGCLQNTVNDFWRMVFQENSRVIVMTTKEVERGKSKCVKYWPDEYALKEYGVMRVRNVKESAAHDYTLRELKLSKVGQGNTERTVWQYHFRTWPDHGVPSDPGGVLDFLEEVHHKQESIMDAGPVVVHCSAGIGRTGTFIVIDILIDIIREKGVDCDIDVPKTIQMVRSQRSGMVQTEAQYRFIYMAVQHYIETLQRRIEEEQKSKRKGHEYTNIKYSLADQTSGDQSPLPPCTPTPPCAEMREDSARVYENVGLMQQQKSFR
Protocol: (§1) To determine the ability of the tested compounds for inhibition tyrosine phosphatases, human recombinant proteins were used (Sigma-Aldrich). The reactions were performed in black opaque 384-well microplates (PerkinElmer, Waltham, MA, USA). An equal volume of phosphatase solution in a reaction buffer (25 mM of 3-(N-morpholino)propanesulfonic acid (MOPS), 50 mM NaCl, 1 mM dithiothreitol (DTT), and 0.05% Tween-20 (pH 7.0)) was added to the solution of the tested compound on microplate. These solutions were dispensed using an automated injector. The following final concentrations of the tested phosphatases were used: PTP1B 50 ng/mL, SHP1 400 ng/mL, SHP2 50 ng/mL, LAR 5 ng/mL, and PTPRA 100 ng/mL. After 10 min, a solution of phosphate 6,8-difluoro-4-methyl (DiFMUP; Thermo Fisher Scientific) was added until its final concentration was 0.1 mM. Samples were incubated for 20 miN at 23 °C, and then the measurements of fluorescence intensity (excitation 355 and emission […]) were performed on a multifunctional plate reader POLARstar Omega (BMG Labtech, Ortenberg, Germany). Assays were performed in triplicate. For the screening assays, the final concentration of the tested compounds was 1 µM. The results were expressed as percent inhibition of untreated control (enzyme with vehicle only) for the screening tests. […] IC50 were calculated using GraphPad Prism version 6.0 software (GraphPad Software, Boston, MA, USA).

LAR = biological target: T2, LAR (Homo sapiens, UniProt P10586); experiment: Inhibition of human recombinant tyrosine phosphatase LAR (DiFMUP fluorescence); type: biochemical; details: 1 µM; control solvent only; SD did not exceed 6%
T2 sequence (P10586 1352-1607 limits assumed): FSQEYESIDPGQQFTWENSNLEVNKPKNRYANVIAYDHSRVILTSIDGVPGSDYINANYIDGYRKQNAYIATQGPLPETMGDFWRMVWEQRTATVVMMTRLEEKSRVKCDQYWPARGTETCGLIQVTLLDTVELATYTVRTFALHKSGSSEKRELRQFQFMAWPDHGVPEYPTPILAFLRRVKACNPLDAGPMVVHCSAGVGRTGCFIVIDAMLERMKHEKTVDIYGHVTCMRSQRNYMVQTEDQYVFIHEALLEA
Protocol: as §1

SHP1 = biological target: T3, SHP1 (Homo sapiens, UniProt P29350); experiment: Inhibition of human recombinant tyrosine phosphatase SHP1 (DiFMUP fluorescence); type: biochemical; details: 1 µM; control solvent only; SD did not exceed 6%
T3 construct: purchased Sigma-Aldrich
T3 sequence (P29350 whole entry): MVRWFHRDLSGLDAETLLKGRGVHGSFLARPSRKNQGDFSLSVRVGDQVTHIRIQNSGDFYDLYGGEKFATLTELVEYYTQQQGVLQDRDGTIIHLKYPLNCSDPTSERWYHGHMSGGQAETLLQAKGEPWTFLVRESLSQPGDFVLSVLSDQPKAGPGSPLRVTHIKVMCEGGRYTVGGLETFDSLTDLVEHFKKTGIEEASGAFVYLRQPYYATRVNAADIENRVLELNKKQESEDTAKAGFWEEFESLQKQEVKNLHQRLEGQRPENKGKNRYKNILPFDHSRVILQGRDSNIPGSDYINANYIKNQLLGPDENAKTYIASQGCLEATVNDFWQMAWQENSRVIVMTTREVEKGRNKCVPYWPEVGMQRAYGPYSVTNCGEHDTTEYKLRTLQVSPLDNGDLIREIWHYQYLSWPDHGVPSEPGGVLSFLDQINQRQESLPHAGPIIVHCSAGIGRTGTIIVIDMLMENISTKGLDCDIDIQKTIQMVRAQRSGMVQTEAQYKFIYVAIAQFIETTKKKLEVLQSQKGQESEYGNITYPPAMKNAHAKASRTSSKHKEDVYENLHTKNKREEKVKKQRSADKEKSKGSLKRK
Protocol: as §1

adipocytes 3T3-L1 = experiment: Scintillation proximity assay, transport of [14C]-deoxy-D-glucose into adipocytes 3T3-L1; type: cell-based, mouse; details: 50 µM
Protocol: Adipocytes 3T3-L1 cell line (ATCC CRL-11605) derived from fibroblasts from mouse embryo tissue were cultured according to standard protocol in DMEM medium supplemented with 10% bovine calf serum, 100 IU/mL penicillin, and […] streptomycin at 37 °C in 5% CO2. Cells were seeded in 96-well poly-D-lysine-coated plates and cultured to reach confluency.
(§2) Scintillation proximity assay (SPA) is a method to measure the real-time accumulation of radiolabeled substrates by adherent cells with no filtration needed. Radioactivity concentrated closer to the scintillator embedded in the plastic bottom of each well provides a stronger signal than the radiolabeled substrate in the culture medium. Uptake of radiolabeled 2-deoxy-D-[U-14C]-glucose was conducted based on previous descriptions.
Adipocytes were washed and the medium was changed to the basal medium. After 24 h incubation, the tested complexes were added. After 2 h incubation at 37 °C in 5% CO2, the medium was changed to DMEM medium without glucose, with 0.1% BSA free from fatty acid, […] L-glutamine, and […] pyruvate. The tested complexes were added again, and further incubation for 4 h was conducted.
(§3) For cells proceeded as above, 2-deoxy-D-[U-14C]-glucose (250–350 mCi/mmol, NEC720A, PerkinElmer) solution in KRB with a total activity of 0.03 mCi was added to each well. […] Non-specific radioactivity was subtracted from each result (cpm). Two independent experiments with triplicates were conducted.

PTP1B = biological target: T4, PTP1B (Homo sapiens, UniProt P18031); experiment: Inhibition of human recombinant tyrosine phosphatase PTP1B (DiFMUP fluorescence); type: biochemical; details: 1 µM; control solvent only; SD did not exceed 6%
T4 construct: purchased Sigma-Aldrich
T4 sequence (P18031 1-435): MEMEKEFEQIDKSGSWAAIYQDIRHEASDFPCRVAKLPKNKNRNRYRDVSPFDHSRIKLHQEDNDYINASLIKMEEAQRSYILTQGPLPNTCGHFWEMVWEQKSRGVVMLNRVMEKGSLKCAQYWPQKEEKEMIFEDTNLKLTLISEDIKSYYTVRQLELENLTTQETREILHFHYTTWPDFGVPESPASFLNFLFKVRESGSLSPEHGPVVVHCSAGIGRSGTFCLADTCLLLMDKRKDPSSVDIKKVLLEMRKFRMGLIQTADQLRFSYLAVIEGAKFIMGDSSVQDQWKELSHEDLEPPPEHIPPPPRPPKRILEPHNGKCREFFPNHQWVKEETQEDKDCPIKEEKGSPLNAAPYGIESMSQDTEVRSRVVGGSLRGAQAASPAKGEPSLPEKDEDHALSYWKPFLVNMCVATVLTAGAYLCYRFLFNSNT
Protocol: as §1

myocytes C2C12 [1] = experiment: Scintillation proximity assay, transport of [14C]-deoxy-D-glucose into myocytes C2C12; type: cell-based, mouse
Protocol: (§4) The myocyte C2C12 cell line (ATCC CRL-1772), a subclone of myoblasts from mouse muscles, was cultured according to standard protocol in DMEM supplemented with 10% fetal calf serum, 100 IU/ml penicillin, and […] streptomycin at 37 °C in 5% CO2. Cells were pleated on a 96-well microplate and after reach confluence were differentiated in medium with 2% horse serum. Differentiation medium was changed every 72 h.
as §2
After 24 h incubation, the tested complexes were added. After 2 h incubation at 37 °C in 5% CO2, the medium was changed to low-glucose medium (1000 mg/L), and the tested complexes were added again, with further incubation for 4 h being conducted.
as §3

myocytes C2C12 [2] = experiment: Glucose consumption (utilization) by myocytes C2C12; type: cell-based, mouse; details: 50 µM (highest tested concentration); 24 h
Protocol: as §4
Differentiated myocytes C2C12 were used after 8 days of differentiation. The culture medium was changed for medium with 0.2% bovine serum albumin, 100 IU/mL penicillin, and 100 µg/mL streptomycin, and after 2 hours of incubation, the medium was changed to fresh medium containing the tested compounds. […]
Glucose concentration was determined based on enzymatic reaction with glucose oxidase and fluorometrically detection reaction end product using an AmplexRed Glucose/Glucose Oxidase Kit (Thermo Fisher Scientific) according to the manufacturer’s protocol. […] Fluorescence signal was measured at excitation of 530 nm and emission of 580 nm using a multimodal microplate reader POLARStar Omega (BMG Labtech), and glucose concentration in samples was calculated in MARS Data Analysis Software version 3.02.R2 (BMG Labtech) based on glucose standards. […] The final results were expressed as the percent of controls containing cells and solvent only.

Inhibition of SHP2, percentage of inhibition of the control (SHP2) [%]	Inhibition of LAR, percentage of inhibition of the control (LAR) [%]	Inhibition of SHP1, percentage of inhibition of the control (SHP1) [%]	Inhibition of PTP1B, percentage of inhibition of the control (PTP1B) [%]	SMILES	Transport of [14C]-deoxy-D-glucose into 3T3-L1 adipocytes, % of control (adipocytes 3T3-L1)	Transport of [14C]-deoxy-D-glucose into C2C12 myocytes, % of the control (myocytes C2C12 [1]; 50 µM, control solvent only)	Transport of [14C]-deoxy-D-glucose into C2C12 myocytes (myocytes C2C12 [1]; 10 and 1 µM)	Glucose consumption by myocytes C2C12, % of the control (myocytes C2C12 [2])
74	66	67	60	O.[O]=[V]1[O]C(c2ccccc2O)=NN=Cc2cc(Br)ccc2[O]1.c1cnc2c(c1)ccc1cccnc12 [VC013, [VO(L6)(phen)]⋅H2O]	statistically significant activity			
48	8	44	9	O.O=C(NN=Cc1cc(Br)ccc1[O][V]1[O]C(c2ccccc2)=NN=Cc2cc(Br)ccc2[O]1)c1ccccc1 [VC032, [V(L8)(HL8)]⋅H2O]		266 ± 36 % of control	significant effects	No statistically significant effect

Reference: article PMC10892041, “Vanadium Complexes with Thioanilide Derivatives of Amino Acids: Inhibition of Human Phosphatases and Specificity in Various Cell Models of Metabolic Disturbances” (Pharmaceuticals, 2024)
